Assay results: patent US7226940B2, “Substituted heterocycles for the treatment of diabetes and other diseases” (Incyte San Diego, Inc., priority 2004, dated 2007)

Tests used:
db/db mutant mice = assay: Oral administration in the early intervention treatment of type 2 diabetes in db/db mutant mice; type: in vivo; settings: day 12
Description: Five week-old female db/db mutant mice (C57BL/KsJ-db +/+ m; Jackson Labs) were housed in a fixed 12-12-hr artificial light-dark cycle, and maintained on a standard high fat diet (containing at least 11% crude fat) provided ad libitum (Teklad S-2335). Animals were allowed two days to acclimate in this experimental environment prior to the initiation of the study.
Prior to initiation of treatment, the animals were bled from the tail vein (100–200 μL of whole blood) and serum levels of glucose and triglycerides were measured in duplicate (Trinder kits; Sigma, St. Louis, Mo.). Based on these initial measures, animals (not yet hyperglycemic) were sorted into groups with approximately the same average serum glucose levels. Once sorted, the animals were housed six per cage and provided high fat rodent diet ad libitum. • Experiment I: (Compound 1) • Treatment groups (n=6/group): • 1) db/db control (sesame oil) • 2) Compound 1 (0.3 mg/kg; twice daily) • 3) Compound 1 (1 mg/kg; twice daily) • Experiment II: (Compound 32) • Treatment groups (n=6/group): • 1) db/db control (sesame oil) • 2) Compound 32 (0.3 mg/kg; once daily) • 3) Compound 32 (1 mg/kg; once daily) • 4) Compound 32 (3 mg/kg; once daily) • 3) Rosiglitazone (1 mg/kg; only daily)
Drug is prepared by mixing Compound 1 or 32 in sesame oil, and administered to animals in a volume of 5 ml/kg/dose. Drug is administered by oral gavage daily at the beginning (Compound 1 and 32) and end of the artificial dark cycle (Compound 1; 12 hour interval).
(§1) To monitor the effect of Compound 1 or 32, animals were bled following a three-hour fast at the end of the dark cycle on days 12 of the treatment period. Fasting serum glucose and triglyceride levels were measured in duplicate. The blood is kept at room temperature to allow coagulation, after which the serum is separated and assayed for glucose and triglyceride levels.

ob/ob mutant mice = assay: Oral administration in the late intervention treatment of type 2 diabetes in ob/ob mutant mice; type: in vivo; settings: oral gavage 5 mg/kg twice daily, p<0.05 vs control; for fasting serum glucose levels: 1 and 2 weeks of treatment; for fasting serum triglyceride levels: two weeks of treatment
Description: Five week-old male ob/ob mutant mice (C57BL/6J-ob; Jackson Labs) were housed in a fixed 12-12-hr artificial light-dark cycle, and maintained on a standard diet provided ad libitum. Animals were allowed two days to acclimate in this experimental environment prior to the initiation of the study.
Prior to initiation of treatment, the animals were bled from the tail vein (100–200 μL of whole blood) and serum levels of glucose and triglycerides were measured in duplicate (Trinder kits; Sigma, St. Louis, Mo.). Based on these initial measures, hyperglycemic animals were sorted into groups with approximately the same average serum glucose levels. Once sorted, the animals were housed six per cage and provided standard rodent diet ad libitum. • Treatment groups (n=6/group): • 1) ob/ob control (sesame oil) • 2) Compound 1 (5mg/kg twice daily)
Drug is prepared by mixing Compound 1 in sesame oil, and administered to animals in a volume of 3 ml/kg/dose. Drug is administered by oral gavage twice daily at the beginning and end of the artificial dark cycle (12 hour interval).
as §1, with “1,” for “1 or 32,”, “7 and 14” for “12”

[1] = db/db mice, oral gavage, 0.3, 1 or 3 mg/kg once daily, rosiglitazone 1 mg/kg as comparator
[2] = db/db mice, oral gavage, 0.3, 1 or 3 mg/kg once daily, rosiglitazone 1 mg/kg as comparator, listed as compound 32
[3] = young db/db mice, oral gavage, 0.3 or 1 mg/kg twice daily
[4] = young db/db mice, oral gavage, 0.3 or 1 mg/kg twice daily, listed as compound 1

## Cc1cc2c(cc1-c1cc(/C=C3\SC(=O)NC3=O)ccc1OC(F)(F)F)C(C)(C)CCC2(C)C [Compound 32, 3-(3,5,5,8,8-Pentamethyl-5,6,7,8-tetrahydro-2-naphthyl)-4-trifluoromethoxybenzylidene-2,4-thiazolidinedione]
db/db mutant mice; [1]
  fasting serum glucose levels: remained well within the normal range
  fasting serum triglyceride levels: remained well within the normal range
db/db mutant mice; [2]
  fasting serum glucose levels: equally or more potent than rosiglitazone
  fasting serum triglyceride levels: equally or more potent than rosiglitazone

## COc1ccc(/C=C2\SC(=O)NC2=O)cc1-c1cc2c(cc1C)C(C)(C)CCC2(C)C [Compound 1, 3-(3,5,5,8,8-Pentamethyl-5,6,7,8-tetrahydro-2-naphthyl)-4-methoxybenzylidene-2,4-thiazolidinedione]
ob/ob mutant mice; 5 mg/kg
  fasting serum glucose levels: significant decrease
  fasting serum triglyceride levels: significantly reduced
ob/ob mutant mice; listed as compound 1, 5 mg/kg
  fasting serum glucose levels: reduce
  fasting serum triglyceride levels: reduce
db/db mutant mice; [3]
  fasting serum glucose levels: remained well within the normal range
  fasting serum triglyceride levels: remained well within the normal range
db/db mutant mice; [4]
  fasting serum glucose levels: prevent increases
  fasting serum triglyceride levels: prevent increases
